Data reported in the supplement of paper PMC11208160.

Assay: recombinant UMI read abundance after kanamycin selection (control-corrected) (log10(CPM+1)); higher = more efficient recombination; extreme values may be limits of the assay; sequences stand for … in AGTGCAGAGAAAATCGGCCAGTTTTCTCTGCCTGCAGTCCGCATGCCGTGGGACCCCTTGGGTTCTAACCTGTTGCCTAGATTTATGCAGCGGACTGCCTTTCTCCCAAAGTGATAAACCGG…AGGTTGGTTTCACT; site = the 11-nt donor
Procedure, shortened: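 In Escherichia coli, a pool of donor and donor-binding-loop pairs, each with a 12-nt UMI, was tested for the IS621 bridge recombinase. Plating was on IPTG (0.07 mM) plus kanamycin, or without selection, in two replicates. Recombinant UMIs were amplified by PCR across the donor–target junction and sequenced, and counts were reported as log10(CPM+1) after averaging and control-derived scaling.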
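Also: IS621 bridge recombinase in Escherichia coli cells against a fixed T5 target plasmid.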

Sequence | recombinant UMI read abundance (log10)
CGAACATCATGGACCGGTTTTCCCGGTAATCCGTATTTGCT (site CGACCATCTAG) | 0.469
AGCTCGGCATGGACCGGTTTTCCCGGTAATCCGTATTTGGG (site AGCTCCGCTCC) | 0.0225
TCTAACACATGGACCGGTTTTCCCGGTAATCCGTATTTGTC (site TCTAACACTGA) | 0
GTAGTCGCATGGACCGGTTTTCCCGGTAATCCGTATTTGCG (site GGAGTCGCTCG) | 0.0136
TTTACGGCATGGACCGGTTTTCCCGGTAATCCGTATTTGCT (site TTTTCGGCTAG) | 0.0523
GGCAACCCATGGACCGGTTTTCCCGGTAATCCGTATTTGTT (site GGCCACCCTAA) | 0.0118
ACTAATACATGGACCGGTTTTCCCGGTAATCCGTATTTGGC (site GCTAATACTGC) | 1.02
GGATGCACATGGACCGGTTTTCCCGGTAATCCGTATTTGTA (site GTATGCACTTA) | 0.439
CGTTTGTCATGGACCGGTTTTCCCGGTAATCCGTATTTGCT (site CGTTTGGCTAG) | 0
TTTCTGACATGGACCGGTTTTCCCGGTAATCCGTATTTGCC (site TTTCTGACTGG) | 0
ATAAGGACATGGACCGGTTTTCCCGGTAATCCGTATTTGAC (site ATAAGGTCTGT) | 1.93
CGTTTGGCATGGACCGGTTTTCCCGGTAATCCGTATTTGGT (site CGTTTGGCTAG) | 0.00668
CCCGGTGCATGGACCGGTTTTCCCGGTAATCCGTATTTGCA (site CCCGGTGCTTG) | 0
ACAGTATCATGGACCGGTTTTCCCGGTAATCCGTATTTGCA (site ACAATCTCTTG) | 0
ATGTCGGCATGGACCGGTTTTCCCGGTAATCCGTATTTGTC (site ATGTCGGCTGA) | 2.23
AGCCTTTCATGGACCGGTTTTCCCGGTAATCCGTATTTGAC (site ATCCTTTCTGT) | 0
CGCAATACATGGACCGGTTTTCCCGGTAATCCGTATTTGGT (site CGCAATACTAC) | 1.25
CCGTTTACATGGACCGGTTTTCCCGGTAATCCGTATTTGCT (site GCGTTTACTAG) | 0
CCATAGCCATGGACCGGTTTTCCCGGTAATCCGTATTTGCC (site CCTTAGCCTGG) | 0
TCGTTAGCATGGACCGGTTTTCCCGGTAATCCGTATTTGTG (site GCGTTAGCTCA) | 0.109
CGATTGACATGGACCGGTTTTCCCGGTAATCCGTATTTGTT (site CGATGGACTAA) | 0.00746
CTAATAACATGGACCGGTTTTCCCGGTAATCCGTATTTGGA (site CTACTAACTTC) | 0.337
TACCTAGCATGGACCGGTTTTCCCGGTAATCCGTATTTGAA (site TAGCTAGCTTT) | 0
GCGTATTCATGGACCGGTTTTCCCGGTAATCCGTATTTGCC (site GCGTATTCTGG) | 2.14
CGACATACATGGACCGGTTTTCCCGGTAATCCGTATTTGCG (site CGACATACTCG) | 2.76

Sequence | recombinant UMI read abundance (log10)
ATTAGAACATGGACCGGTTTTCCCGGTAATCCGTATTTGGC (site GTTAGAACTGC) | 0
CCTAAAACATGGACCGGTTTTCCCGGTAATCCGTATTTGAT (site CCTAAAGCTAT) | 0.00636
ATCCTTTCATGGACCGGTTTTCCCGGTAATCCGTATTTGAC (site AGCCTTTCTGT) | 0
CGAACATCATGGACCGGTTTTCCCGGTAATCCGTATTTGCT (site CGTACATCTAG) | 0
GTTACGTCATGGACCGGTTTTCCCGGTAATCCGTATTTGTA (site GTTACGTCTTA) | 1.22
ACCTGGACATGGACCGGTTTTCCCGGTAATCCGTATTTGGG (site ACCTGGACTCC) | 0.0305
TATTCGCCATGGACCGGTTTTCCCGGTAATCCGTATTTGGG (site TATTCGCCTCC) | 0.0547
CCCTGTCCATGGACCGGTTTTCCCGGTAATCCGTATTTGCA (site CCCAGTCCTTG) | 0
AGGACTCCATGGACCGGTTTTCCCGGTAATCCGTATTTGAC (site AGGACTTCTGT) | 0
TACTTGACATGGACCGGTTTTCCCGGTAATCCGTATTTGTT (site TACTTGACTAC) | 0.0106
CGAGTGTCATGGACCGGTTTTCCCGGTAATCCGTATTTGAC (site CGAGTGTCTGT) | 2.13
GTTTGCACATGGACCGGTTTTCCCGGTAATCCGTATTTGTA (site GTATGCACTTA) | 0.00807
CCACGTCCATGGACCGGTTTTCCCGGTAATCCGTATTTGGT (site CCACGTCCTAC) | 0.0291
ACAGTATCATGGACCGGTTTTCCCGGTAATCCGTATTTGCA (site ACAGTGTCTGG) | 0
CTAGGTGCATGGACCGGTTTTCCCGGTAATCCGTATTTGAT (site CAAGGTGCTAT) | 1.59
GGCACTCCATGGACCGGTTTTCCCGGTAATCCGTATTTGAA (site GGCAGTCCTTT) | 0.00862
CCTATATCATGGACCGGTTTTCCCGGTAATCCGTATTTGTC (site CCAATATCTGA) | 0
AAGCAGGCATGGACCGGTTTTCCCGGTAATCCGTATTTGGG (site AAGCAAGCTCC) | 0.00504
ACAGTATCATGGACCGGTTTTCCCGGTAATCCGTATTTGCA (site ACACTTTCTTG) | 0
CGCTTTCCATGGACCGGTTTTCCCGGTAATCCGTATTTGGT (site CGCTTTCCTAC) | 0
GGCCACACATGGACCGGTTTTCCCGGTAATCCGTATTTGTT (site GGCCACTCTAA) | 0.00795
CCTTAAGCATGGACCGGTTTTCCCGGTAATCCGTATTTGAT (site CCTCAAGCTAT) | 0.0107
AGTTCCCCATGGACCGGTTTTCCCGGTAATCCGTATTTGTA (site TGTTCCCCTTA) | 0.0167
ACCTAGACATGGACCGGTTTTCCCGGTAATCCGTATTTGGG (site ACCTACACTCC) | 0.0139
CAATCATCATGGACCGGTTTTCCCGGTAATCCGTATTTGAT (site CAATCATCTAT) | 0.435

Sequence | recombinant UMI read abundance (log10)
TGTGCACCATGGACCGGTTTTCCCGGTAATCCGTATTTGAC (site TGTTCACCTGT) | 0
TCAAGGCCATGGACCGGTTTTCCCGGTAATCCGTATTTGGT (site TCAAGGCCTAC) | 0.00348
AAGACTACATGGACCGGTTTTCCCGGTAATCCGTATTTGAC (site ATGACTACTGT) | 1.25
GATTGCACATGGACCGGTTTTCCCGGTAATCCGTATTTGAC (site GATTGAACTGT) | 0
CGTGGCACATGGACCGGTTTTCCCGGTAATCCGTATTTGTT (site CGTGGGACTAA) | 0.00775
TTTTTGGCATGGACCGGTTTTCCCGGTAATCCGTATTTGTG (site TCTTTGGCTCA) | 0.0102
TGAGAGACATGGACCGGTTTTCCCGGTAATCCGTATTTGCG (site TTAGAGACTCG) | 1.19
TTCAATGCATGGACCGGTTTTCCCGGTAATCCGTATTTGCA (site TTCAATGCTTG) | 0
CTGCTATCATGGACCGGTTTTCCCGGTAATCCGTATTTGCT (site CTGCTAACTAG) | 0.708
CCCCATACATGGACCGGTTTTCCCGGTAATCCGTATTTGTA (site CCCCAGACTTA) | 0
TCTTCAGCATGGACCGGTTTTCCCGGTAATCCGTATTTGTG (site TCTTCAGCTCA) | 0.0132
GAGCTCACATGGACCGGTTTTCCCGGTAATCCGTATTTGAA (site GAGCTCACTGT) | 0.716
GGCAATCCATGGACCGGTTTTCCCGGTAATCCGTATTTGAA (site GGAAATCCTTT) | 0
CTGCTTCCATGGACCGGTTTTCCCGGTAATCCGTATTTGCT (site CTGCTGCCTAG) | 0.00367
AATGTGTCATGGACCGGTTTTCCCGGTAATCCGTATTTGAC (site AATGTGACTGT) | 0.00331
CGGCATCCATGGACCGGTTTTCCCGGTAATCCGTATTTGTC (site CGGCATCCTGA) | 0
GCTTGCCCATGGACCGGTTTTCCCGGTAATCCGTATTTGAT (site TCTTGCCCTAT) | 0.0164
AGGTTCCCATGGACCGGTTTTCCCGGTAATCCGTATTTGTG (site AGATTCCCTCA) | 0.438
CAAGTCACATGGACCGGTTTTCCCGGTAATCCGTATTTGCG (site CAAGTCACTCA) | 1.27
CCTAGAGCATGGACCGGTTTTCCCGGTAATCCGTATTTGTT (site CCTAGAGCTAA) | 0.633
TATCGATCATGGACCGGTTTTCCCGGTAATCCGTATTTGAC (site TATCGATCTGT) | 1.86
ACAGTATCATGGACCGGTTTTCCCGGTAATCCGTATTTGCA (site GCAGTATCTAG) | 0.0509
CCCTTCTCATGGACCGGTTTTCCCGGTAATCCGTATTTGGG (site CCCTACTCTCC) | 0.0199
GGCATGACATGGACCGGTTTTCCCGGTAATCCGTATTTGCC (site GGCATGACTGG) | 0
AGAGGAGCATGGACCGGTTTTCCCGGTAATCCGTATTTGGC (site AGAGGAGCTGC) | 1.01
